Key:
[1] = tested on: CK2α; assay: CK2α localization by confocal immunofluorescence / western blot, H1299 cells; assay type: cell-based, human; settings: NatD knockdown H1299 cells
Text: Fig. 7 Downregulation of Nt-acetylation of histone H4 facilitates nuclear accumulation of CK2α and its binding to histone H4 in lung cancer cells. a Representative confocal scanning images of CK2α localization in Scr and H1299 cells (left panel). The staining intensity of CK2α was quantified by software ImageJ from NIH (right diagram). Scale bars, 5 μm. […] Equal peptide biotinylated on C terminus is shown by dot blot analysis with streptavidin (middle panel). […] IgG served as a negative control. Results are shown as mean ± s.d. from three independent experiments; two-tailed Student’s t-test, **P < 0.01 compared with the indicated control. g Quantitative real-time PCR analysis of mRNA levels of CK2α and Slug normalized to GAPDH in Scr and NatD-KD H1299 cells in the absence or presence of siRNA to CK2α. NC, siRNA mimics negative control. […]
For immunofluorescence assays, cells were fixed with 4% formaldehyde for 5 min at room temperature. […] Sub-cellular distribution of CK2α was analyzed by confocal scanning microscopy (Olympus FV10i). The relative intracellular distribution of CK2α in each experimental sample was calculated as the nuclear to total (cytoplasmic + nuclear) ratio by measuring the intensity of the signals in each cellular compartment with the aid of ImageJ software (NIH). […]

[2] = tested on: LLC cells; assay: Orthotopic implantation in C57BL/6 mice, LLC cells; assay type: in vivo, murine; settings: pleural cavity, 14 days, n = 5, vs Scr
Protocol: All animal care and handling procedures were performed in accordance with the National Institutes of Health Guide for the Care and Use of Laboratory Animals, and were approved by the Institutional Review Board of Nanjing University (Nanjing, China). Female SCID mice and C57BL/6 mice (6–8 week old) were purchased from the Model Animal Research Center of Nanjing University (Nanjing, China), and were maintained under specific pathogen-free conditions at Nanjing University. The sample size was chosen with adequate power on the basis of the literature and our previous experience[46] and for each experiment it is indicated in the figure legend. Prior to carrying out the experiment, mice were randomly assigned to two different treatment groups (NatD-KD or Scr). For xenograft studies, 1 × 10^6 cells were resuspended in 100 µl PBS and injected into the lateral tail vein. Lung nodules and progression were monitored and quantified using the bioluminescence system (Caliper IVIS Lumina XR) or by counting under a dissecting microscope. […] Mice were killed at day 28 or day 30 to collect lungs, and lung nodules in serial sections were quantified microscopically. […] Lung nodules and progression were monitored and quantified using the bioluminescence system (Caliper IVIS Lumina XR). Mice were killed at day 14 or day 21 to collect lungs, and lung nodules in serial sections were quantified microscopically. […]

[3] = tested on: H1299 cells; assay: Apoptosis and cell cycle by flow cytometry, H1299 cells; assay type: cell-based, human; settings: vs Scr
Protocol: The in vitro viability of H1299 cells was assessed using the Cell Counting Kit-8 (CCK-8, Dojindo, Japan) according to the manufacturer’s protocol. Flow cytometric analysis of apoptosis was assessed by Annexin V and PI staining using the Annexin V-APC Apoptosis Detection Kit (KeyGEN BioTECH, China) according to the manufacturer’s guide. For cell cycle analysis, cells were harvested and fixed at 4 °C overnight with 70% ethanol. Cells were washed twice with PBS, and their DNA was stained using a Cell Cycle Detection Kit (KeyGEN BioTECH, China). The samples were analyzed by flow cytometry (Becton Dickinson, NJ, USA), and results were analyzed with FlowJo software according to the manufacturer’s instructions. For the wound healing assay, cells were plated to confluence in a 6-well plate, and the cell monolayer was scratched using a pipette tip. Representative photos were taken using a digital camera mounted on an inverted microscope (Olympus) at indicated times. Live cell imaging was performed using the HoloMonitor M4 time-lapse cytometer (Phase Holographic Imaging, Sweden). […]
Supplementary Figure 1. […] (b and c) Representative images from three independent experiments of apoptosis (b) and cell cycle analysis (c) of Scr and NatD-KD H1299 cells analyzed by flow cytometry. […]

In the case of “NatD-KD2: Human NatD shRNA KD2: 5′-GGTTGAATGTCTCCATTGA-3′, lentiviral (shRNA lentiviral)”, the “CK2α in the cytoplasm (western blot)” value [1] was “no detectable levels”, the “CK2α localized in the nucleus” value ([1]; more than 30 cells (Scr: about 70%)) was ~100% and the “migration and invasion, orthotopic model” value [2] was “significantly reduced”. For the same substance, the “numbers of apoptotic cells or cell cycle” value [3] was “no difference”.
